Data reported in US11353463B2, “Redox-based reagents for methionine bioconjugation” (The Regents of the University of California, priority 2016, dated 2022).

Legend:
[1] = molecular target: bovine serum albumin (BSA) (Bos taurus, UniProt P02769); assay: ReACT labeling of BSA, CuAAC with Cy3-azide, in-gel fluorescence imaging
Protocol: FIG. 1A Left panel: Acid-base conjugation strategies for cysteine-based protein functionalization; Right panel: Redox-Activated Chemical Tagging (ReACT) strategies for methionine-based protein functionalization. Oxaziridine (Ox) compounds serve as oxidant-sulfimide conjugation product. (B) Model redox conjugation reaction with 25 μM of N-acetyl-L-methionine methyl ester (Si) and 27.5 μM of various oxaziridine compounds as substrates in co-solvent. (C) Number of unique redox conjugation carrying peptide on representative amino acid, namely Met, Lys and Cys by labeling HeLa cell lysate with Ox4 at the final concentration of 1 mM for 10 min. (D) Yield of conjugation reaction was performed with 15 μM of BSA carrying 4 methionine per protein and 100 μM Ox4 at indicated time point as measured by in-gel fluorescence imaging.
ReACT as a method for site-selective methionine conjugation of proteins was evaluated. […] The resulting redox conjugation yield to BSA was analyzed by in-gel fluorescence imaging. […] The reactivity of various alkyne- and azide-containing oxaziridine probes with CaM model protein was assessed (FIG. 2B). […]

[2] = Stability of redox conjugation product sulfimide (NMR); type: physicochemical; conditions: salt form under strong acidic condition
Protocol: The reactivity of oxaziridine probes with other biologically relevant amino acid competitors was evaluated. […] HeLa cell lysates were treated with Ox4, trypsin digested, and then analyzed by LC-MS/MS for probe modification on all nucleophilic amino acids using the X!Tandem program^43. […] Finally, the chemical stability of the sulfimide methionine conjugation product was tested, finding that this linkage is resistant to acidic and basic conditions, elevated temperature, as well as treatment with a strong protein disulfide reducing agent such as tris(2-carboxyethyl)phophine (TCEP).
The stability of sulfimides were tested by treatment of sulfimides S2 with 5 mM TCEP or treatment of sulfimides S3 with 1 N HC1, 1 N NaOH or 80° C. in co-solvent (d-MeOD/D2O=1:1). The reactions were monitored by NMR after 1 h and 18 h and the reaction conversions were calculated based on NMR data.

Sequence of bovine serum albumin (BSA) (P02769 25-607): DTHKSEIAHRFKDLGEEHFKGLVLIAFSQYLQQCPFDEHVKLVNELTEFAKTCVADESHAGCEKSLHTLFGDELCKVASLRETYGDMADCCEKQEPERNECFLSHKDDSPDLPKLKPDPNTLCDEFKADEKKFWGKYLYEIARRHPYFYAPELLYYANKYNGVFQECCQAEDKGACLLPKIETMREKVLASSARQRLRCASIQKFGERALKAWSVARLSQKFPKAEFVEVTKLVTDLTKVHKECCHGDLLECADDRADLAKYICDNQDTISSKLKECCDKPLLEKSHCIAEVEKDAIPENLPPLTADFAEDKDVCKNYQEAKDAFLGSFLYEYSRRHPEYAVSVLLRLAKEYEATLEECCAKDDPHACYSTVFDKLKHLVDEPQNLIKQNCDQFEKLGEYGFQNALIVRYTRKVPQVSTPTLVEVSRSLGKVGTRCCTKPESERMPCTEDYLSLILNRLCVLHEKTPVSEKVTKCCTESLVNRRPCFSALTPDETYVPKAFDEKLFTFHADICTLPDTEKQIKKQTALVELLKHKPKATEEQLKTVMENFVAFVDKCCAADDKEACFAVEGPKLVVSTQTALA

SMILES	redox conjugation yield to BSA ([1]; within 1-2 min, 15 μM BSA, 100 μM Ox4) [%]	labeling of BSA ([1]; within the first 5 s following addition of Ox4) [%]	stability in aqueous solution [2]
C#CCNC(=O)N1OC1c1ccccc1 (stereo not drawn) [Ox4, 3-Phenyl-N-(prop-2-yn-1-yl)-1,2-oxaziridine-2-carboxamide]	> 95	50	–
CCNC(=O)N[S+](C)c1ccccc1.[Cl-] (stereo not drawn) [Ox S4]	–	–	stable in aqueous solution
